Consider one compound from patent US9637770B2, “Methods and devices for handling biofouling” (MEKOROT WATER COMPANY, LTD., priority 2011, dated 2017).

In data set [1] the test system is microorganisms. The experiment in a line: Biofouling index on the biosensor after 24 h circulation of water dosed with hypochlorite. The format is cell-based. On the procedure: The change in color on the biosensor was determined for each water sample in six repetitions as described above.
The biofouling Index was determined as follows: Biofouling Index=100×PPP×(1−PPP)+(100−LL)×PPP
For simplicity, the Biofouling Index was translated into a biofouling score, A, B, C, . . . F, according to ranges of biofouling, with lower biofouling range, representing low biofouling identified as score A. The correlating score is identified in Table 7.
Hypochlorite was dissolved to obtain a stock solution of 140 mg/L. Dilutions of this stock solution were as detailed in Table 9. The dilutions were injected into the water circulating in the biosensing apparatus and the total chlorine concentration was measured for each dilution. As control, no hypochlorite was added.
Circulation conditions: flow: 90 ml/min; circulation container volume: 2 L; duration of circulation: 24 hours at a temperature of 35° C.

The subject of data set [2] is biofilm on RO membrane. The experiment in a line: Biofilm grown on RO membranes for 15 days with input water containing chloramines, measured with CLSM. The format is cell-based. As to the method:
Biofilm was allowed to grow on the surface of miniature RO membranes (ESNA1-LF, Hydranautics, USA), equipped within a device having the membrane held within a closed chamber, the chamber comprising a feed inlet, brine outlet and permeate outlet for fluids, where the pressure obtain from the desalination pilot pressurized flows.
For biofilm analysis a 5×5 mm membrane segment was taken from each of the tested membranes. Each segment was inserted into an Eppendorf test tube comprising 2 ml 0.24% sterilized TRIS solution (pH 7.2) and the test tubes were turned upside down gently several time. […]
The staining of the RO membranes with SYTO9 and Tetramethylrhodamine, provided information about the presence and quantity of microorganisms and the extracellular polymeric substance (EPS), respectively. The CLSM images were scanned and analyzed with PHLIP software (http://sourceforge.net/projects/phlip/) which enabled quantization of CLSM data with respect to the biovolume of the biofilm. […]
In addition, water from sampling Point No. 3 (SP3) was allowed to flow through miniature membrane facilities (as described above) in parallel, for 15 days in order to allow growth of biofilm on the surface of the membranes. After 15 days, the membranes were treated and analyzed as described above in order to determine the resulting biovolume. […]

Data set [3] deals with biofilm on the membrane surface. The experiment in a line: Normalized permeate flow of the pilot plant with low dose of chloramines. As to the method: FIG. 7 provides a graph showing the normalized permeate flow as a function of operation time for a pilot plant with low dose of chloramines as determined with the bio-sensor test. Also examined was the effect of preventing the development of biofilm on the membrane surface when 4.2 mg/L hypochlorite were added.

In the case of `OCl` [Sodium hypochlorite, sodium hypochlorite], in data set [1] (24 h circulation, 35° C.), the “Amount of hypochlorite sufficient to prevent biofouling (close to zero biofouling)” value turned out to be 4.2 mg/L. For the same compound, the “Biofouling index after addition of hypochlorite (drop from control level C)” value in data set [1] (all tested amounts of hypochlorite, control C, 24 h circulation) is given as “B (biofouling index <6)”. The Biofouling index result was “B (biofouling index <6)” in data set [1] (sodium hypochlorite 0.7 mg/l, total chloramines 0.17 mg/l, 24 h circulation, 35° C.); “B (biofouling index <6)” in data set [1] (sodium hypochlorite 1.4 mg/l, total chloramines 0.29 mg/l, 24 h circulation, 35° C.); “B (biofouling index <6)” in data set [1] (sodium hypochlorite 2.1 mg/l, total chloramines 0.45 mg/l, 24 h circulation, 35° C.); “B (biofouling index <6)” in data set [1] (sodium hypochlorite 2.8 mg/l, total chloramines 0.94 mg/l, 24 h circulation, 35° C.); “B (biofouling index <6)” in data set [1] (sodium hypochlorite 2.8 mg/l, total chloramines 1.0 mg/l, 24 h circulation, 35° C.); “B (biofouling index <6)” in data set [1] (sodium hypochlorite 4.2 mg/l, total chloramines 1.42 mg/l, 24 h circulation, 35° C.). The Biofouling index entry in data set [1] (sodium hypochlorite 4.2 mg/l, total chloramines 1.48 mg/l, 24 h circulation, 35° C.) is recorded as “B (biofouling index <6)”; in data set [1] (sodium hypochlorite 4.6 mg/l, total chloramines 1.63 mg/l, 24 h circulation, 35° C.), “B (biofouling index <6)”; in data set [1] (sodium hypochlorite 5.6 mg/l, total chloramines 1.86 mg/l, 24 h circulation, 35° C.), “B (biofouling index <6)”. Besides, the “Biofouling index (numerical, FIG. 4)” value in data set [1] (total chlorine concentration of 1.4 mg/L and more) was “close to zero”. Besides, in data set [2] (4.2 mg/L hypochlorite (1.5 mg/L chloramines), injected 4 hours per day, Stage I input water), the “Biovolume of biofilm on the membrane relative to that without hypochlorite” value was “about ⅕”. Also, in data set [2] (hypochlorite added (chloramines)), the “Thickness of biofilm relative to that in the absence of chloramines” value is recorded as “about ⅕”. Also, the “Effect on normalized permeate flow” value in data set [3] (4.2 mg/L hypochlorite, 320 hours, Stage I, Stage II and Stage III) is “no decrease in permeate flow”. In addition, in data set [3] (treatment with hypochlorite, data not shown), the “Effect on biofouling on the membranes” value was “reduced biofouling on the membranes”.
